Our source for the remaining binding values is paper PMC7486443, “Generation of Phenothiazine with Potent Anti-TLK1 Activity for Prostate Cancer Therapy” (iScience, 2020).

Molecules are shown by their SMILES.

Common to all, as to assay: biochemical
Holding throughout (parameters): DiscoverX KINOMEscan scanMAX competition binding panel, single concentration, percent of control; remaining binding: dose or concentration left out as unconfirmed
What all share (settings): KINOMEscan binding, percent of control; read-out: Table S4_SCANMAX REPORT - related to Fig. 1 / Percent Control

The target of assay [1] is NEK5 (Homo sapiens, UniProt Q6P3R8).
The target of assay [2] is ACVRL1 (Homo sapiens, UniProt P37023).
Assay [3] addresses T1, PIP5K2B (Homo sapiens, UniProt P78356).
T1 construct: gene PIP4K2B

In assay [4] the target is TNK1 (Homo sapiens, UniProt Q13470).
For assay [5], the target named is DYRK1A (Homo sapiens, UniProt Q13627).
In assay [6] the target is T2, MEK6 (Homo sapiens, UniProt P52564).
T2 construct: gene MAP2K6

For assay [7], the target named is KIT(V559D,T670I) (Homo sapiens, UniProt P10721, T670I/V559D).
The target of assay [8] is BMPR1B (Homo sapiens, UniProt O00238).
Assay [9] addresses IRAK3 (Homo sapiens, UniProt Q9Y616).
Assay [10] addresses TXK (Homo sapiens, UniProt P42681).
Assay [11] concerns the target T3, MLCK (Homo sapiens, UniProt Q32MK0).
T3 construct: gene MYLK3

Assay [12] deals with FLT3(N841I) (Homo sapiens, UniProt P36888, N841I).
Assay [13] deals with T4, ABL1(E255K)-phosphorylated (Homo sapiens, UniProt P00519, E255K).
T4 construct: phosphorylated

Assay [14] addresses INSR (Homo sapiens, UniProt P06213).
The target of assay [15] is NEK7 (Homo sapiens, UniProt Q8TDX7).
The target in assay [16] is T5, MKK7 (Homo sapiens, UniProt O14733).
T5 construct: gene MAP2K7

For assay [17], the target named is ERBB4 (Homo sapiens, UniProt Q15303).
Assay [18] deals with T6, BRK (Homo sapiens, UniProt Q13882).
T6 construct: gene PTK6

Chain of KIT(V559D,T670I) (P10721 whole entry V559D/T670I): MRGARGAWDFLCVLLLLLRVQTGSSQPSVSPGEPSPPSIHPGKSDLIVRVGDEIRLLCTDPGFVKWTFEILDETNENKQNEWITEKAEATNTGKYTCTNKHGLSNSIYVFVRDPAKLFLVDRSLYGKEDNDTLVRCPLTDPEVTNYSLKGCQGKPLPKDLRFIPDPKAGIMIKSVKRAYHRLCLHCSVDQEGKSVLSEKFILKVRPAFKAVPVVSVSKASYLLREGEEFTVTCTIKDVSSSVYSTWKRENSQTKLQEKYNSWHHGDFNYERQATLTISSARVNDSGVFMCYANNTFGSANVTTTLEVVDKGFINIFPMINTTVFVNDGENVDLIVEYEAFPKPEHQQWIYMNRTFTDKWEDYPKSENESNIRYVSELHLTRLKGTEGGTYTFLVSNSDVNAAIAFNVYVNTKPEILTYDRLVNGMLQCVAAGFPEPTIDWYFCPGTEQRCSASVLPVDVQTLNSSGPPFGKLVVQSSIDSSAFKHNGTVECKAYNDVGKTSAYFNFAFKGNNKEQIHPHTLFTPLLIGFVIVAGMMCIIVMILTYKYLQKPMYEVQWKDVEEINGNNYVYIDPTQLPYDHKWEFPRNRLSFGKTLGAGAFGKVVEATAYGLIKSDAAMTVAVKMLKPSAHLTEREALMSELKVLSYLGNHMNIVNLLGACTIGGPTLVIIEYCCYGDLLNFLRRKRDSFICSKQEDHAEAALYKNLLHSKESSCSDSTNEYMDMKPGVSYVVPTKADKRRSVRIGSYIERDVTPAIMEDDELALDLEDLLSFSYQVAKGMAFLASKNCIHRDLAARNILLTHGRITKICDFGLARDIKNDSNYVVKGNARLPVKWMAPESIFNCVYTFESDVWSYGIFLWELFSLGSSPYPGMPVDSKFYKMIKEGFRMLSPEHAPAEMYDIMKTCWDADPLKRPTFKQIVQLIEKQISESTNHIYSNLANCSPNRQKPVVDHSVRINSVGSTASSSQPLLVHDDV
T5 sequence (O14733 whole entry): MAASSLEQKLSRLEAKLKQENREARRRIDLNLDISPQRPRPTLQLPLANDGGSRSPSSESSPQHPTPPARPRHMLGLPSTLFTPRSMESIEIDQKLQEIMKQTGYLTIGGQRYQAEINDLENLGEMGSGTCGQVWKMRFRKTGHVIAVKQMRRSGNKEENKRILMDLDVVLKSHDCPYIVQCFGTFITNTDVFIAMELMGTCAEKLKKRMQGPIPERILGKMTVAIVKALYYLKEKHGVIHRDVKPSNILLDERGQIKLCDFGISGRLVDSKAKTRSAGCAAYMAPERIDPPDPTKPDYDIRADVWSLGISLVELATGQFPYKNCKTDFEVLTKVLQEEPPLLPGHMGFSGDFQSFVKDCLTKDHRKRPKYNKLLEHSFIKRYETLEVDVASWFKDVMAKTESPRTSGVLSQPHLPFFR
Chain of BMPR1B (O00238 whole entry): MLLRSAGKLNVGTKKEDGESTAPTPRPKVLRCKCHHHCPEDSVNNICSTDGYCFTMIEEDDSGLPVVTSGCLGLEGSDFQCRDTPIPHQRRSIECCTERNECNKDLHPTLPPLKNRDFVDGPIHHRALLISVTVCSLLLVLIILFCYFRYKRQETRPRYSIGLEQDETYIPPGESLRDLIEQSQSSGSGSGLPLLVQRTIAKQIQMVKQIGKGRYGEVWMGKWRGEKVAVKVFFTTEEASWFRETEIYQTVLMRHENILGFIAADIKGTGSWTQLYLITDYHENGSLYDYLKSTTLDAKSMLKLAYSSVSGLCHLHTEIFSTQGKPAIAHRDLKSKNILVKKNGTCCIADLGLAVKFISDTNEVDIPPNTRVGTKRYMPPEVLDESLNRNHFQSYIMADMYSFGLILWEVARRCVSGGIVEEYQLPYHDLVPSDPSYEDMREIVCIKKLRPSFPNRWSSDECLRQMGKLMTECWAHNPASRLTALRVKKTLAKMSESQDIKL
Chain of INSR (P06213 whole entry): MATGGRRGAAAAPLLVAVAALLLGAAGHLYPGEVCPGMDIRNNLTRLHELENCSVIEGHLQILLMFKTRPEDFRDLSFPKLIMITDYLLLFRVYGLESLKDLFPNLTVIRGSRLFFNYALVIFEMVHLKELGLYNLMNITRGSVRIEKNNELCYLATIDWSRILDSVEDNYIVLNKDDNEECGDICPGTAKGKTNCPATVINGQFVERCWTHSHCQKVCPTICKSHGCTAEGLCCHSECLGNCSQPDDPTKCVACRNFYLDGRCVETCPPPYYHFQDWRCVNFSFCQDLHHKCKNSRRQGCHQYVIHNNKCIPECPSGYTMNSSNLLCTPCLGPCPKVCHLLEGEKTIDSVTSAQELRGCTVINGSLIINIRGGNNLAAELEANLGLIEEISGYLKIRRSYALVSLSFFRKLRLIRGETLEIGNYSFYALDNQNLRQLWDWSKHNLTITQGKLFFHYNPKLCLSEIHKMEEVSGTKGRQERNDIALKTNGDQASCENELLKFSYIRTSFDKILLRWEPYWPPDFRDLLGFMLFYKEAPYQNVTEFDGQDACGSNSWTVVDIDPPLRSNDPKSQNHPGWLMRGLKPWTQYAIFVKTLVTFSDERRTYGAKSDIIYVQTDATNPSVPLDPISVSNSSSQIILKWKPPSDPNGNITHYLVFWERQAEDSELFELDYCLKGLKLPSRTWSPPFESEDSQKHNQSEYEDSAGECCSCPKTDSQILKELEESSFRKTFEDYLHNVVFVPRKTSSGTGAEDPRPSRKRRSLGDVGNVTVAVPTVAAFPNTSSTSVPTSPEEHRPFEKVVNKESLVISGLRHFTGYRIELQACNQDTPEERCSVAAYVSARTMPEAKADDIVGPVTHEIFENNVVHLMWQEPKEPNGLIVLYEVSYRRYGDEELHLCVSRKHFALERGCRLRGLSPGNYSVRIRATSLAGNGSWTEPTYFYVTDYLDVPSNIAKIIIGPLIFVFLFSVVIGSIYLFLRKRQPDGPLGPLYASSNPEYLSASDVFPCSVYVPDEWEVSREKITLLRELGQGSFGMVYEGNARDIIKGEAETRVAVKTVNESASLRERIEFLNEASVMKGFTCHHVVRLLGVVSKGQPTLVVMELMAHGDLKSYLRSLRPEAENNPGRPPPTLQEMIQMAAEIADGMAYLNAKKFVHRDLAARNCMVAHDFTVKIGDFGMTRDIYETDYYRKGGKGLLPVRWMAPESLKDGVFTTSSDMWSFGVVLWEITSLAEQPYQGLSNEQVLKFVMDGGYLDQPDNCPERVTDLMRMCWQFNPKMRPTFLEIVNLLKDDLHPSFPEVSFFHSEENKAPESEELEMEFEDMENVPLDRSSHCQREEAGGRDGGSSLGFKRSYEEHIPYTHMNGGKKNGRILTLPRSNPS
Chain of ACVRL1 (P37023 whole entry): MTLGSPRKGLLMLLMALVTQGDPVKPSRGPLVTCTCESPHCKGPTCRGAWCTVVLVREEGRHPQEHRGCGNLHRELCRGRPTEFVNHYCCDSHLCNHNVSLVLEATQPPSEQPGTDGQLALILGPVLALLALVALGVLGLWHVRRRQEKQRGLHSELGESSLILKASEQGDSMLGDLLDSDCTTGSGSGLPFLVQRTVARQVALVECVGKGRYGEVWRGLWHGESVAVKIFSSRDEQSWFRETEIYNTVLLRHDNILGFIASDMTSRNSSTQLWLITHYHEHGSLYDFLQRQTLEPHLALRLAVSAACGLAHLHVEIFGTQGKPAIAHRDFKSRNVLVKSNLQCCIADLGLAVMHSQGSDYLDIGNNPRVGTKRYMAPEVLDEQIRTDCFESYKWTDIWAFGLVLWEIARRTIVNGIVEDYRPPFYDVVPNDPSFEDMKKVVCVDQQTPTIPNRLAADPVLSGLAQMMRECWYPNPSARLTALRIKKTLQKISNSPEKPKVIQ
T2 sequence (P52564 whole entry): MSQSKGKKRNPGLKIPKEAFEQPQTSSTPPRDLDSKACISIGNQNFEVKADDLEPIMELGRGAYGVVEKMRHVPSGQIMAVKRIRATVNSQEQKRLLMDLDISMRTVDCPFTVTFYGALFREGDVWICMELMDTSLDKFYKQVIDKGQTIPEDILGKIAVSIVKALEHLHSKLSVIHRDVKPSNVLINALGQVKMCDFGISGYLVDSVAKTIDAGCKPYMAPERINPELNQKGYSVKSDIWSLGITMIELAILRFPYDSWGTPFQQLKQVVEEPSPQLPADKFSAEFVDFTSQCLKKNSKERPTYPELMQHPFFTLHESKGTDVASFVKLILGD
Chain of IRAK3 (Q9Y616 whole entry): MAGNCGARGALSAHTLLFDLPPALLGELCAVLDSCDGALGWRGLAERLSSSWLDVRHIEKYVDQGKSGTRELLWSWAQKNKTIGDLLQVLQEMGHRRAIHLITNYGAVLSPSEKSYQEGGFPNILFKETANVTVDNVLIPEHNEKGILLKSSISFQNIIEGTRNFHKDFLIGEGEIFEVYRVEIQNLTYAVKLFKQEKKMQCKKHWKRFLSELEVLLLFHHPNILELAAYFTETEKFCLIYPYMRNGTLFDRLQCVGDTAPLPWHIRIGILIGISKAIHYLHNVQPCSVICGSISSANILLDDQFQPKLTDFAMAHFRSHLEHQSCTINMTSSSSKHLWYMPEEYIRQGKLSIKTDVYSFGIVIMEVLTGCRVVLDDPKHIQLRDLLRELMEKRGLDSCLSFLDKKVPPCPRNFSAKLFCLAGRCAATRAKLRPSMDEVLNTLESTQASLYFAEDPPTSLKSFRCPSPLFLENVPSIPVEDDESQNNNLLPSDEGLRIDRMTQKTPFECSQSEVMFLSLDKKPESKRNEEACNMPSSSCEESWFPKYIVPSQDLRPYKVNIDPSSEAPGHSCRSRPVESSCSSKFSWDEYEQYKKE
Chain of NEK7 (Q8TDX7 whole entry): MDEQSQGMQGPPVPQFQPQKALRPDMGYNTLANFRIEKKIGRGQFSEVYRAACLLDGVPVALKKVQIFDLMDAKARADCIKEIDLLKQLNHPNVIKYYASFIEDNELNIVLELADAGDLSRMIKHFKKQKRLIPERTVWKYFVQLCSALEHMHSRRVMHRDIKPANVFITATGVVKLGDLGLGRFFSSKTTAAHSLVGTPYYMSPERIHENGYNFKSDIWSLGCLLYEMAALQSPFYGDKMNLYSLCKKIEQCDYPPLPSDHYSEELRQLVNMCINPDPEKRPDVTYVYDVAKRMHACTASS

With `c1ccc2c(c1)Sc1ccccc1N2CCN1CCOCC1` [J54], the remaining binding in [1] amounted to 70%; in assay [2], 100%; in assay [3], 51%; in [4], 99%; in assay [5], 80%; in [6], 96%. Moreover, the remaining binding was found to be 100% in [7]; 93% in assay [8]; 90% in assay [9]; 99% in assay [10]; 79% in assay [11]; 99% in assay [12]. Besides, the remaining binding is 86% in assay [13]; 68% in [14]; 100% in [15]; 79% in assay [16]; 100% in assay [17]; 100% in assay [18].
